Test results from ChEMBL document CHEMBL1147699, “Studies on the novel alpha-glucosidase inhibitory activity and structure-activity relationships for andrographolide analogues” (Bioorg Med Chem Lett, 2006).
The source made the active and inactive calls. The rule behind the calls is not given here.

What was measured:
[1] = target: Maltase-glucoamylase (Homo sapiens) (UniProt O43451); test: Inhibition of alpha glucosidase at 100 uM
[2] = target: T1, Cytosolic beta-glucosidase (Homo sapiens) (UniProt Q9H227); test: Inhibition of beta glucosidase at 100 uM
T1 sequence (whole entry): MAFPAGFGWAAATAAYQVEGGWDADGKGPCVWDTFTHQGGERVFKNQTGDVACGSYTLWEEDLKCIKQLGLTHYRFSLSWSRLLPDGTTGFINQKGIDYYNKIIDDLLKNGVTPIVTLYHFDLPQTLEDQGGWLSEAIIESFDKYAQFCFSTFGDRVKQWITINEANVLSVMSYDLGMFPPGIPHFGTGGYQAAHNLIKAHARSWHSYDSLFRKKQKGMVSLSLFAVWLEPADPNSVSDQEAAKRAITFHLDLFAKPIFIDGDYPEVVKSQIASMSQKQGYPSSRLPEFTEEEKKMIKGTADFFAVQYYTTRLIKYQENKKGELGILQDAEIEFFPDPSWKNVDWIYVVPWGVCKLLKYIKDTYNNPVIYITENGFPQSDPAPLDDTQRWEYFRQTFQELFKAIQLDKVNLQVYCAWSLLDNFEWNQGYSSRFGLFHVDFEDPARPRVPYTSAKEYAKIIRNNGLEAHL

Maltase-glucoamylase (Homo sapiens), sequence (O43451 whole entry, looked up): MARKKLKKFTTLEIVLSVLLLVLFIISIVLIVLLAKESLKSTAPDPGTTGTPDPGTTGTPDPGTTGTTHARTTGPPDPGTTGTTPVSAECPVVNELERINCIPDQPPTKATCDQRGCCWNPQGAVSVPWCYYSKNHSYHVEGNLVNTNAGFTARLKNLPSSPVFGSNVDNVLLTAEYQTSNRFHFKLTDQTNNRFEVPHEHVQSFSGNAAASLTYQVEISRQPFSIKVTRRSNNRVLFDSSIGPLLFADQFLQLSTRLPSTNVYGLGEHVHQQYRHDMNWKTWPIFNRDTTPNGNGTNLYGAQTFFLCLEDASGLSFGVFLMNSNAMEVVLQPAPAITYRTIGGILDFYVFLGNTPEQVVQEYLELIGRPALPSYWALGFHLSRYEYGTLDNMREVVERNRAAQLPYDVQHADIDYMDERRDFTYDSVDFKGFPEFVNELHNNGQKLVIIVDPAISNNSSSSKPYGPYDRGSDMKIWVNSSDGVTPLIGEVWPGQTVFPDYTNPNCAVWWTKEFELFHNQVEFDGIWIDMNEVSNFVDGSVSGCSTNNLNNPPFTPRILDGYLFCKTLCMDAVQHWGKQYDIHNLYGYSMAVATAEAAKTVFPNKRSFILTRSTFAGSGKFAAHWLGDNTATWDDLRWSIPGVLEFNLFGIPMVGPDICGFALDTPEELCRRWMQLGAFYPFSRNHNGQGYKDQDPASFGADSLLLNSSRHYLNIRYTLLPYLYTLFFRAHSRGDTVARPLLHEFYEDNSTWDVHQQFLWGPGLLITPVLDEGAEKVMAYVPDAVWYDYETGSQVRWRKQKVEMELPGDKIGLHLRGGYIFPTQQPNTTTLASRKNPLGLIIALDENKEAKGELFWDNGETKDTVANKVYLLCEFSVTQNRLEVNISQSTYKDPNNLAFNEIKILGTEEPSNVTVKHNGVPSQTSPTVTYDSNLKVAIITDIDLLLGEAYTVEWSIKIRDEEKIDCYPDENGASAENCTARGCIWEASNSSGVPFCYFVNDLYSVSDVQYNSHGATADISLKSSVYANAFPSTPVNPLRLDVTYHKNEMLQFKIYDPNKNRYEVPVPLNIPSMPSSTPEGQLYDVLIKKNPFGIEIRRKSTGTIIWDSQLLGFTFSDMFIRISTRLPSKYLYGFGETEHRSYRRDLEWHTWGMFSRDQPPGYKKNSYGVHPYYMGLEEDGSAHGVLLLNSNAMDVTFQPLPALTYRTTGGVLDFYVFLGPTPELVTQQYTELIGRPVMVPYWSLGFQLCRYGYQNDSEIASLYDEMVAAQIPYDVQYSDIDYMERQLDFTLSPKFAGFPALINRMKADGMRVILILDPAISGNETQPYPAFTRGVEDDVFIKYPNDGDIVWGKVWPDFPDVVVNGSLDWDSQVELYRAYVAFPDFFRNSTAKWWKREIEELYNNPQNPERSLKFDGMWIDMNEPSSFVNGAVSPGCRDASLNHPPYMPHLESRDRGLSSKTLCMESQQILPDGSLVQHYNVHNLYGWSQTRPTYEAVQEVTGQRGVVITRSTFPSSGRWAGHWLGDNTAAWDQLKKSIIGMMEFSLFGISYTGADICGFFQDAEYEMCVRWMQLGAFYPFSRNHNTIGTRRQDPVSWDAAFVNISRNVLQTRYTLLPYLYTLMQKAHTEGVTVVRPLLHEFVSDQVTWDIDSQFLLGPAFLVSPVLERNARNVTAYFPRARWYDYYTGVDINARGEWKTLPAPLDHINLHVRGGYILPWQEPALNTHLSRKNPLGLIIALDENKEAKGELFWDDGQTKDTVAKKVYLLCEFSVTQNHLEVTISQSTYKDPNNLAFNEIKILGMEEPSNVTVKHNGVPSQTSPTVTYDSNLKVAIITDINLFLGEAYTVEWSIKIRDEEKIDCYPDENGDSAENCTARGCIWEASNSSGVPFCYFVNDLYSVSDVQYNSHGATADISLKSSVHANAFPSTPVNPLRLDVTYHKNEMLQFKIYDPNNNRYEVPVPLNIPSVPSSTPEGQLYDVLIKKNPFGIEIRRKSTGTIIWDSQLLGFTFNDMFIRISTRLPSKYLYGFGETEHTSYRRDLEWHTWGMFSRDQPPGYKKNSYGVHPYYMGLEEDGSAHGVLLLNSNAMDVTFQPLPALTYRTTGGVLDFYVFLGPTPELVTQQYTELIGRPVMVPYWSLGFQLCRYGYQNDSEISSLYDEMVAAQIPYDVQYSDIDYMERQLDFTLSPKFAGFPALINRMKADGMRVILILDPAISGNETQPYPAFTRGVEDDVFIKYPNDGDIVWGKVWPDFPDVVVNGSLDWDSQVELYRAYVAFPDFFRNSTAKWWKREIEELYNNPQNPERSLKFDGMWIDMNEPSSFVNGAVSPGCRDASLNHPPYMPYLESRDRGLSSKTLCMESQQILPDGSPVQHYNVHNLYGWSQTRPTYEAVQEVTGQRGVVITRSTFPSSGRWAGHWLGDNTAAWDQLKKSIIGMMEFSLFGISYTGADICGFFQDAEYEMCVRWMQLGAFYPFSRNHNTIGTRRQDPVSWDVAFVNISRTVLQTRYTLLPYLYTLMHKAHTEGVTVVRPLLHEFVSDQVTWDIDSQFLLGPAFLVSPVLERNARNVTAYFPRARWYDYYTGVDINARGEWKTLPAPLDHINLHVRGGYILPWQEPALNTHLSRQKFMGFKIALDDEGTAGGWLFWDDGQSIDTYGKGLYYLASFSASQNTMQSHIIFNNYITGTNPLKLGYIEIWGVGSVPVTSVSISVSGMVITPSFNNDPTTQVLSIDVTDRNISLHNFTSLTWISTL

Row | Compound | inhibition [1] | inhibition [2]
1 | C=C1CC[C@@H]2[C@](C)(CO)[C@H](O)CC[C@@]2(C)[C@@H]1/C=C/C1=CC(=C/C=C(/C)CCC=C(C)C)/OC1=O | inactive | 
2 | C[C@]1(CO)[C@H]2CC[C@@]3(CO3)[C@@H](/C=C/C3=CC(=C/C=C/c4ccccc4)/OC3=O)[C@]2(C)CC[C@H]1O | 49.2% | 
3 | C=C1CC[C@@H]2[C@]3(C)COC(c4ccccc4)O[C@@H]3CC[C@@]2(C)[C@@H]1C/C=C1/C(=O)OC[C@H]1O (stereo not given in full) | 48.9% | 
4 | C=C1CC[C@@H]2[C@]3(C)COC(c4ccc(OC)cc4)O[C@@H]3CC[C@@]2(C)[C@@H]1C/C=C1/C(=O)OC[C@H]1O (stereo not given in full) | 13.2% | 
5 | C=C1CC[C@@H]2[C@](C)(CO)[C@H](O)CC[C@@]2(C)[C@@H]1/C=C/C1=CC(=C/C=C/c2ccccc2)/OC1=O | 84.3% | 
6 | C=C1CC[C@@H]2[C@](C)(CO)[C@H](O)CC[C@@]2(C)[C@@H]1/C=C/C1=CC(=C/c2cccc(Br)c2)/OC1=O | 16.7% | 
7 | C=C1CC[C@@H]2[C@](C)(CO)[C@H](O)CC[C@@]2(C)[C@@H]1/C=C/C1=CC(=C/c2ccc(Cl)cc2)/OC1=O | inactive | 
8 | CC(C)=C1C=C(/C=C/[C@@H]2[C@@]3(CC[C@@H]4[C@](C)(CO)[C@H](O)CC[C@]42C)CO3)C(=O)O1 | inactive | 
9 | C=C1CC[C@@H]2[C@](C)(CO)[C@H](O)CC[C@@]2(C)[C@@H]1/C=C/C1=CC(=C/c2ccc(OC)cc2)/OC1=O | 100% | 
10 | C=C1CC[C@@H]2[C@]3(C)COC(CCCC)O[C@@H]3CC[C@@]2(C)[C@@H]1C/C=C1/C(=O)OC[C@H]1O (stereo not given in full) | inactive | inactive
11 | C=C1CC[C@@H]2[C@]3(C)COCO[C@@H]3CC[C@@]2(C)[C@@H]1C/C=C1/C(=O)OC[C@H]1O | inactive | inactive
12 | C=C1CC[C@@H]2[C@](C)(CO)[C@H](O)CC[C@@]2(C)[C@@H]1C/C=C1/C(=O)OC[C@H]1O | inactive | inactive
13 | C=C1CC[C@@H]2[C@](C)(CO)[C@H](O)CC[C@@]2(C)[C@@H]1/C=C/C1=CC(=C/c2ccc(F)cc2)/OC1=O | inactive | 
14 | C=C1CC[C@@H]2[C@](C)(CO)[C@H](O)CC[C@@]2(C)/C1=C/C=C1\C=COC1=O | inactive | inactive
15 | COc1ccc(/C=C2C=C(/C=C/[C@@H]3[C@@]4(CC[C@@H]5[C@](C)(CO)[C@H](O)CC[C@]53C)CO4)C(=O)O/2)cc1 | 37.7% | 
16 | C=C1CC[C@@H]2[C@]3(C)COC(c4cc(OC)c(OC)cc4OC)O[C@@H]3CC[C@@]2(C)[C@@H]1C/C=C1/C(=O)OC[C@H]1O (stereo not given in full) | 14.5% | 
17 | C=C1CC[C@@H]2[C@]3(C)COC(c4cccc(Br)c4)O[C@@H]3CC[C@@]2(C)[C@@H]1C/C=C1/C(=O)OC[C@H]1O (stereo not given in full) | 49.6% | 
18 | C=C1CC[C@@H]2[C@](C)(CO)[C@H](O)CC[C@@]2(C)[C@@H]1CCC1C(=O)OC[C@H]1O (stereo not given in full) | 34.2% | inactive
19 | C=C1CC[C@@H]2[C@](C)(CO)[C@H](O)CC[C@@]2(C)[C@@H]1/C=C/C1=CC(=C/CCC)/OC1=O | 43.5% | inactive
20 | C=C1CC[C@@H]2[C@]3(C)COC(C)(C)O[C@@H]3CC[C@@]2(C)[C@@H]1C/C=C1/C(=O)OC[C@H]1O | inactive | inactive
21 | C=C1CC[C@@H]2[C@]3(C)COC(c4ccc(F)cc4)O[C@@H]3CC[C@@]2(C)[C@@H]1C/C=C1/C(=O)OC[C@H]1O (stereo not given in full) | 26.2% | 
22 | C[C@]1(CO)[C@H]2CC[C@@]3(CO3)[C@@H](/C=C/C3=CCOC3=O)[C@]2(C)CC[C@H]1O | inactive | 
23 | C=C1CC[C@@H]2[C@]3(C)COC(c4ccccc4OC)O[C@@H]3CC[C@@]2(C)[C@@H]1C/C=C1/C(=O)OC[C@H]1O (stereo not given in full) | 5.5% | 
24 | C=C1CC[C@@H]2[C@]3(C)COC(CCCCCC)O[C@@H]3CC[C@@]2(C)[C@@H]1C/C=C1/C(=O)OC[C@H]1O (stereo not given in full) | 20.1% | inactive
25 | C=C1CC[C@@H]2[C@](C)(CO)[C@H](O)CC[C@@]2(C)[C@@H]1/C=C/C1=CCOC1=O | 16.5% | inactive
26 | C=C1CC[C@@H]2[C@](C)(CO)[C@H](O)CC[C@@]2(C)[C@@H]1/C=C/C1=CC(=C(C)C)OC1=O | 17.1% | inactive
27 | C=C1CC[C@@H]2[C@](C)(CO)[C@H](O)CC[C@@]2(C)[C@@H]1/C=C/C1=CC(=C/C)/OC1=O | 15.1% | inactive
28 | C=C1CC[C@@H]2[C@]3(C)COC(c4ccc(Cl)cc4)O[C@@H]3CC[C@@]2(C)[C@@H]1C/C=C1/C(=O)OC[C@H]1O (stereo not given in full) | inactive | inactive
